Legend:
Type in all cases: in vivo, rat
[1] = system: neurotensin receptor-1 (NTR1); assay: NT-induced hypothermia (rectal body temperature) in PNA-treated rats
Method: NTR1-PNA, MU1R-PNA, and ACSF treated as well as untreated rats were analyzed using the hot plate test for NT. One day after the last treatment, each rat was analyzed as follows. Fifteen minutes prior to testing, a pre-drug latency measurement was made by placing the rat on a hot plate maintained at a temperature of 52±0.15° C. and recording the time elapsed before the rat licked either of its hindpaws. In addition, the temperature of the rat was taken using a thermister probe inserted 3 cm in the rectum to determine the pre-drug body temperature (BT). After making these measurement, an appropriate dose of NT (18 nmol) at a volume of about 0.5 ul was administered into the PAG as described above. Thirty minutes after administering NT, the rat was again placed on a hot plate maintained at a temperature of 52±0.15° C. and the latency between the time the rat was placed on the surface and the time it licked either of its hindpaws was measured. […] Hot plate tests were scored as the percent of maximum possible effect (% MPE) and calculated using the following equation: % MPE=[(post-drug latency−pre-drug latency)/(cut-off−pre-drug latency)]×100; where the cut-off is 30 seconds. […] This average for untreated control rats was used to set the baseline MPE value to 100. Immediately after the 30 second hot plate test, BT was taken to measure NT-induced hypothermia using a thermister probe inserted 3 cm in the rectum. […] All test situations were compared to these baseline values derived from NT responsive untreated controls.
(§1) AS-NTR1-PNA, mismatch-AS-NTR1-PNA, and MU1R-PNA were injected intraperitoneally (10 mg/kg) independently, into separate groups of male Sprague-Dawley rats (Harlan, Prattville, Ala.). The sense-NTR1-PNA oligomer, however, was microinjected directly into the periaqueductal gray (PAG; 5 μg), the major area in the brain involved with perception of pain (nociception). […] Thirty minutes after receiving NT, animals were scored for anti-nociception (hot plate at 52° C.) and hypothermia (rectal probe). Again, anti-nociception scores were calculated as percent of maximum possible effect (% MPE) with the following equation: % MPE=[(post-drug latency time minus pre-drug latency time)/(cut-off time minus pre-drug latency time)]×100; where the cut-off time (i.e., the time when the animal was removed from the device) was 30 seconds for a hot plate test and 12 seconds for a tail flick test. Statistical analysis was done using the rank sum test.

mu-1 receptor (MU1R) = assay: Tail flick test of MOR-mediated anti-nociception in PNA-treated rats
Method: The injection of MOR into rats produces a potent anti-nociceptive response. This response is mediated by specific MOR receptors and is inhibited by naloxone. A very sensitive and reliable tail flick test was devised and used to measure the anti-nociceptive effects of MOR (D'Amour F. E. and Smith D. L, J. Pharm. Exp. Therap. 72:74-79 (1941)).
MU1R-PNA, NTR1-PNA, and ACSF treated as well as untreated rats were analyzed using the MOR-specific tail flick test. One day after the last treatment, each rat was analyzed as follows. Thirty minutes prior to testing, a pre-drug latency measurement was made by placing the tail of the restrained rat in oil maintained at a temperature of 60° C. and recording the time elapsed before the rat flicked its tail. After making this measurement, an appropriate dose of MOR (5 mg/kg of body weight) at a volume of about 200 μl was injected i.p. Thirty minutes after administering MOR, the restrained rat's tail was again placed in the oil maintained at 60° C. and the latency between the time the tail was placed in the oil and the time the rat flicked its tail was measured. […] Tail flick tests were scored as the percent of MPE and calculated using the following equation: % MPE=[(post-drug latency−pre-drug latency)/(cut-off−pre-drug latency)]×100; where the cut-off is 12 seconds. […] This average for untreated control rats was used to set the baseline A MPE value to 100. All test situations were compared to this baseline response value derived from MOR responsive untreated controls. To test the significance, data were analyzed using the Student's t-test with p<0.05 being considered significant.
as §1

[2] = system: neurotensin receptor-1 (NTR1); assay: Hot plate test of NT-mediated anti-nociception in PNA-treated rats
[3] = intraperitoneal dose-response, one batch of PNA

NTR1-PNA: 12-mer antisense PNA oligomer to rat NTR1 coding region, 5′-CATTGCTCAAAC-3′ (SEQ ID NO: 1) (all peptide nucleic acid (PNA))
body temperature change in response to NT ([1]; 10 mg/kg intraperitoneally, NT 18 nmol 24 hours later): −0.5 °C | time until which NT-mediated hypothermia remained significantly reduced ([1]; PNA injected into PAG on days -4, -2, 0): day six | ED50 for reducing NT hypothermia [1, 3]: 3.2 mg/kg | anti-nociception score (tail flick) after MOR (mu-1 receptor (MU1R); 10 mg/kg i.p. treated animals lacking NT anti-nociception, MOR 5 mg/kg i.p.): 95 % MPE | MPE (tail flick) response to MOR challenge as percent of baseline response (mu-1 receptor (MU1R); PNA injected into PAG on days -4, -2, 0, MOR 5 mg/kg i.p.): indistinguishable from baseline responses | Responsiveness: Morphine (anti-nociception) (mu-1 receptor (MU1R); intraperitoneal administration, Table VI): normal | duration of complete lack of NT responsiveness ([2]; after single oral 10 mg/kg): at least 48 hours | ED50 for reducing NT anti-nociception [2, 3]: 2.6 mg/kg | responsiveness to NT challenge (anti-nociception and hypothermia) ([2]; one day after single i.p. injection of 3 mg/kg): unable to respond to NT challenge | NT responsiveness ([2]; rats given single oral 10 mg/kg, Table III): LOST | hypothermic and anti-nociceptive responses to NT ([2]; twelve hours after 10 mg/kg by gastric intubation (oral), nine rats): either completely abolished (8/9) or nearly completely abolished (1/9)

Reference: patent publication US6989270B1, “Using polyamide nucleic acid oligomers to engender a biological response” (Mayo Foundation for Medical Education and Research, priority 1997, dated 2006)
